Experimental data from patent US8841413B2, “Antidiabetic compounds” (Cadila Healthcare Limited, priority 2006, dated 2014).

Columns and labels:
[1] = system: RIN5F (Rat Insulinoma) cells; experiment: In vitro glucose-dependent insulin secretion (RIN5F cell assay); assay type: cell-based; settings: 16.7 mM glucose load, mean ± S.D., n = 3
Method: After trypsinization, RIN5F cells were seeded at a concentration of 0.2×10^6·cells per well, in 12 well plates.
The supernatant was collected and the insulin amount was measured by ultra sensitive Rat insulin ELISA kit (Crystal Chem, Ill.). The protein was estimated in the supernatant using Bicinchoninic Acid kit, according to the manufacturer's protocol (Sigma Aldrich, Mo.). The total insulin content obtained in Pico-gram (pg) was divided with the total protein (μg) in order to normalize for differences in cell density between wells.

human glucagon receptor = molecular target: T1, human glucagon receptor (Homo sapiens, UniProt P47871); experiment: In vitro human glucagon antagonist activity (inhibition of cAMP production), CHO/human glucagon R cells; assay type: cell-based
T1 construct: The full-length cDNA was cloned in pcDNA3.1(Invitrogen); expressed in transfected cells
Method: CHO cells were grown in Ham's F12 medium containing L-Glutamine (2 mM), HEPES (25 mM), NaHCO3 (1.1 g/L) and supplemented with newborn Calf Serum (NBCS; 10%), Penicillin (50 U/ml (v/v)) and Streptomycin (50 ug/ml (v/v)). Cells were split every 3 days 1:8.
The full-length cDNA was cloned in pcDNA3.1(Invitrogen). […] Clones expressing the receptor were generated by G418 (800 μg/ml active, Sigma) selection. The stable clones were thereafter maintained at 500 ug/ml (G418). The selected clone was used between passages 9-25 for cAMP assays.
The trypsin was inactivated using Ham's F12 medium containing 10% NBCS and the cells were suspended in 2 ml of complete medium. […] The medium was aspirated off from the 12 well plate and the cells were washed once using Ham's F12 (plain). […] After the incubation; the medium was removed and cells were washed once with plain Ham's F12. Subsequently, the cells were lysed by adding 500 ul of ice cold 0.1 N HCl to each well and shaking for 30 minutes at 200 rpm. The cells were then scrapped, the lysate was collected in micro centrifuge tubes and centrifuged at 12000 rpm for 10 min to remove the debris. 300 ul of supernatant from each micro-centrifuge tube was then removed into a glass tube and dried under N2 for 30 min, for cAMP estimation. The total cAMP was estimated from the sample according to the manufacturer's protocol using Cyclic AMP immunoassay kit (R&D systems, Minneapolis: MN). The remaining supernatant is used to determine the protein concentration using micro BCA (Sigma). Data is calculated as percent of control (Vehicle: water) and expressed as Mean+SD.

DPP IV = DPP IV (Homo sapiens, UniProt P27487); experiment: Stability against DPP IV enzyme; assay type: in vitro ADME; settings: for % degradation in 24 h when incubated with DPP-IV enzyme: 2 μM, 37° C.; for half-life at 2 μM: DPP IV enzyme, pH 7.8, 37° C., read-out: half-life (t1/2) with DPP-IV enzyme
Summary of the method: (§1)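 Reactions were stopped with 10% (v/v) TFA/H2O, then analysed by HPLC on a column equilibrated in TFA/H2O at 1 mL/min. Absorbance was read at 206 nm by UV, and peaks were collected manually for ESI-MS identification.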

[2] = Stability in human plasma; assay type: in vitro ADME; settings: for half-life (t1/2) in human plasma / % degradation in 24 h when incubated with human plasma: 2 μM, 37° C.; for half-life at 2 μM: human, pooled human plasma, pH 7.8, 37° C., read-out: half-life (t1/2) in human plasma
Summary of the method: as §1

[3] = Stability in simulated gastric fluid; assay type: in vitro ADME; settings: 37° C., pH 1.5, pepsin; for % degradation in 24 h when incubated with simulated gastric fluid / half-life (t1/2) in simulated gastric fluid: 2 μM; for half-life at 2 μM: simulated gastric fluid with pepsin, read-out: half-life (t1/2) in simulated gastric fluid
Summary of the method: as §1

[4] = Stability in simulated intestinal fluid; assay type: in vitro ADME; settings: 37° C.; for % degradation in 24 h when incubated with simulated intestinal fluid / half-life (t1/2) in simulated intestinal fluid: 2 μM, pH 7.5; for half-life at 2 μM: simulated intestinal fluid, pH 7.5, read-out: half-life (t1/2) in simulated intestinal fluid
Summary of the method: as §1

[5] = Stability against liver microsomes; assay type: in vitro ADME, human; settings: for % degradation in 24 h when incubated with liver microsomes: 2 μM, 37° C.; for half-life at 2 μM: human, human liver microsomes, pH 7.8, 37° C., read-out: half-life (t1/2) with liver microsomes
Summary of the method: as §1

[6] = 1 nM test compound (fourth concentration column, between 100 nM and 10 μM) with saturated concentration of glucagon peptide
[7] = 1 nM test compound with saturated concentration of glucagon peptide
[8] = 10 nM test compound with saturated concentration of glucagon peptide
[9] = 100 nM test compound with saturated concentration of glucagon peptide
[10] = 10 μM test compound with saturated concentration of glucagon peptide

DPP IV, sequence (P27487 whole entry, species assumed): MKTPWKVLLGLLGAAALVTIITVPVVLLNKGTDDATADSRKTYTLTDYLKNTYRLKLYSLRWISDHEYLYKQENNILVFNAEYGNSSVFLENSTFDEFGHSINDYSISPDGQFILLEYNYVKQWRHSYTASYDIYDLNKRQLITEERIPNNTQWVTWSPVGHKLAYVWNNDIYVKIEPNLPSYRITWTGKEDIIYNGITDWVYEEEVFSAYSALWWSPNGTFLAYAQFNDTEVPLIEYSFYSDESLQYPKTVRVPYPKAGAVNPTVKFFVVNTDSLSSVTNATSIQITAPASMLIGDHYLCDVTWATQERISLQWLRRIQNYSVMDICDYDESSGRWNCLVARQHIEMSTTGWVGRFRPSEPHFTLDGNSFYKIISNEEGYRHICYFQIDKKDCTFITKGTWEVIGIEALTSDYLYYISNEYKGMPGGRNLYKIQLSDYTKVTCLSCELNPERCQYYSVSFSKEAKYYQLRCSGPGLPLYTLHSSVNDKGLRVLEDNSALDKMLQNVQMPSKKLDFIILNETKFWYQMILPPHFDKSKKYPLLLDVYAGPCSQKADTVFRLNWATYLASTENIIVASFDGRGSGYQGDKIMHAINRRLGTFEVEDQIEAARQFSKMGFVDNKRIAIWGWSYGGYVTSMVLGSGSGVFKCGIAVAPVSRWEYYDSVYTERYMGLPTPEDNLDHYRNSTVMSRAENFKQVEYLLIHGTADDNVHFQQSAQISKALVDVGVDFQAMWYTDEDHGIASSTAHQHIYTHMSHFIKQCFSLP
T1 sequence (P47871 26-477): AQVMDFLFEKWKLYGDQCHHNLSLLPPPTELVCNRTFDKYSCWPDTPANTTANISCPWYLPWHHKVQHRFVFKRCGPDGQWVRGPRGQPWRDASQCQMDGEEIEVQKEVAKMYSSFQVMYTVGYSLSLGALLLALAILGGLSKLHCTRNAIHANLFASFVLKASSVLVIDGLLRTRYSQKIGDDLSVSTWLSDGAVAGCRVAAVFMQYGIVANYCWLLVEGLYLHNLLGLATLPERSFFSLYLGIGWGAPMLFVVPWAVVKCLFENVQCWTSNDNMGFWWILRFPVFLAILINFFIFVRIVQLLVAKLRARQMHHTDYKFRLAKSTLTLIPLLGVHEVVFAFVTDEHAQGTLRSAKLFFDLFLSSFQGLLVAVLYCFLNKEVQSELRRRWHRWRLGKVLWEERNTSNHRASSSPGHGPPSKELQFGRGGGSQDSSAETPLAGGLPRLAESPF

Compound	Insulin secretion ([1]; 0.1 nM test compd.) [pg/µg/h]	Insulin secretion ([1]; 1 nM test compd.) [pg/µg/h]	Insulin secretion ([1]; 10 nM test compd.) [pg/µg/h]	Human Glucagon receptor antagonistic activity, inhibition of cAMP production of Glucagon peptide (human glucagon receptor; [6]) [pmol/ml/μg prt]	Human Glucagon receptor antagonistic activity, inhibition of cAMP production of Glucagon peptide (human glucagon receptor; [7]) [pmol/ml/μg prt]	Human Glucagon receptor antagonistic activity, inhibition of cAMP production of Glucagon peptide (human glucagon receptor; [8]) [pmol/ml/μg prt]	Human Glucagon receptor antagonistic activity, inhibition of cAMP production of Glucagon peptide (human glucagon receptor; [9]) [pmol/ml/μg prt]	Human Glucagon receptor antagonistic activity, inhibition of cAMP production of Glucagon peptide (human glucagon receptor; [10]) [pmol/ml/μg prt]	% degradation in 24 h when incubated with DPP-IV enzyme (DPP IV) [%]	half-life (t1/2) in human plasma [2]	% degradation in 24 h when incubated with human plasma [2] [%]	% degradation in 24 h when incubated with simulated gastric fluid [3] [%]	half-life at 2 μM [3] [h]	% degradation in 24 h when incubated with simulated intestinal fluid [4] [%]	% degradation in 24 h when incubated with liver microsomes [5] [%]	half-life at 2 μM [5] [h]	half-life at 2 μM (DPP IV) [h]	half-life at 2 μM [2] [h]	half-life (t1/2) in simulated gastric fluid [3]	half-life (t1/2) in simulated intestinal fluid [4]	also measured
CCc1cc(OC)ccc1-c1ccc(CC(NC(=O)[C@H](CC(=O)O)NC(=O)[C@H](CO)NC(=O)[C@@H](NC(=O)[C@H](Cc2ccccc2)NC(=O)[C@@H](NC(=O)CNC(=O)[C@H](CCC(N)=O)NC(=O)[C@H](CO)NC(=O)[C@@H](N)Cc2c[nH]cn2)[C@@H](C)O)[C@@H](C)O)C(=O)NC(Cc2ccc(-c3ccccc3F)cc2)C(N)=O)cc1 (single isomer, unassigned) [compound 7]	11.1 ± 0.12	13.1 ± 0.13	19.0 ± 0.16	0	6 ± 0.02	5 ± 0.03	2 ± 0.61	0	77	(9) h	80	100	0.5	100	100	0.5					half-life at 2 μM [4]: 0.5 h
CCc1cc(OC)ccc1-c1ccc(CC(NC(=O)[C@H](CC(=O)O)NC(=O)[C@H](CO)NC(=O)[C@@H](NC(=O)[C@H](Cc2ccccc2)NC(=O)[C@@H](NC(=O)CNC(=O)[C@H](CCC(N)=O)NC(=O)[C@H](C)NC(=O)[C@@H](N)Cc2c[nH]cn2)[C@@H](C)O)[C@@H](C)O)C(=O)NC(Cc2ccc(-c3ccccc3F)cc2)C(N)=O)cc1 (single isomer, unassigned) [compound 11]	13.1 ± 0.11	14.9 ± 0.17	28.8 ± 0.44	2 ± 0.13	10 ± 0.03	8 ± 0.03	6 ± 0.22	0	86	(9) h	70	100	0.5	100	100	0.5					half-life at 2 μM [4]: 0.5 h
CCc1cc(OC)ccc1-c1ccc(CC(NC(=O)[C@H](CC(=O)O)NC(=O)[C@H](CO)NC(=O)[C@@H](NC(=O)C(C)(Cc2ccccc2F)NC(=O)[C@@H](NC(=O)CNC(=O)[C@H](CCC(N)=O)NC(=O)[C@H](C)NC(=O)[C@@H](N)Cc2c[nH]cn2)[C@@H](C)O)[C@@H](C)O)C(=O)NC(Cc2ccc(-c3ccccc3C(F)(F)F)cc2)C(N)=O)cc1 (single isomer, unassigned) [compound 28]	12.0 ± 0.14	14.3 ± 0.12	27.8 ± 0.32	0	4 ± 0.06	3 ± 0.11	0	0	72		70	12		42	78	1	9	8	(8) h	(6) h	
CCc1cc(OC)ccc1-c1ccc(CC(NC(=O)[C@H](CC(=O)O)NC(=O)[C@H](CO)NC(=O)[C@@H](NC(=O)C(C)(Cc2ccccc2F)NC(=O)[C@@H](NC(=O)CNC(=O)[C@H](CCC(N)=O)NC(=O)[C@H](CO)NC(=O)[C@@H](N)Cc2c[nH]cn2)[C@@H](C)O)[C@@H](C)O)C(=O)NC(Cc2ccc(-c3ccccc3C(F)(F)F)cc2)C(N)=O)cc1 (single isomer, unassigned) [compound 24]	12.3 ± 0.33	14.8 ± 0.16	28.1 ± 0.22	0	4 ± 0.09	2 ± 0.12	0	0	76		78	14		43	80	1	9	8	(8) h	(6) h	
CCc1cc(OC)ccc1-c1ccc(CC(NC(=O)[C@H](CC(=O)O)NC(=O)[C@H](CO)NC(=O)[C@@H](NC(=O)C(C)(Cc2ccccc2F)NC(=O)[C@@H](NC(=O)CNC(=O)[C@H](CCC(N)=O)NC(=O)[C@H](CO)NC(=O)[C@@H](N)Cc2c[nH]cn2)[C@@H](C)O)[C@@H](C)O)C(=O)NC(Cc2ccc(-c3ccccc3C)cc2)C(N)=O)cc1 (single isomer, unassigned) [compound 21]	12.3 ± 0.33	14.1 ± 0.36	28.0 ± 0.16	14 ± 0.02	19 ± 0.03	17 ± 0.08	15 ± 0.01	12 ± 0.11	76		78	12		55	79	1	9	8	(8) h	(6) h	
